Source: ChEMBL document CHEMBL3044615, “Synthesis and in vitro antimicrobial activity of benzo[b][1,4]thiazin-3(4H)-ones via smiles rearrangement” (2011)
In brackets after ≈: the same amount, converted by molar mass. Activity calls are given as the source filed them. The rule behind the calls is not given here.

Legend:
Assay type in all cases: functional
[1] = system: Escherichia coli; test: Antibacterial activity against Escherichia coli ATCC 25922 after 24 hr by two-fold microdilution technique; details: ATCC 25922, 24 h
[2] = system: Staphylococcus aureus; test: Antibacterial activity against Staphylococcus aureus ATCC 25923 after 24 hr by two fold microdilution technique; details: ATCC 25923, 24 h
[3] = system: Pseudomonas aeruginosa; test: Antibacterial activity against Pseudomonas aeruginosa ATCC 27853 after 24 hr by two-fold microdilution technique; details: ATCC 27853, 24 h
[4] = system: Candida albicans; test: Microbiostatic activity against Candida albicans ATCC 76615 after 48 hr by two-fold microdilution technique
[5] = system: Micrococcus luteus; test: Antibacterial activity against Micrococcus luteus NCTC 2665 after 24 hr by two-fold microdilution technique; details: NCTC 2665, 24 h
[6] = system: Bacillus subtilis; test: Antibacterial activity against Bacillus subtilis ATCC 6633 after 24 hr by two fold microdilution technique; details: ATCC 6633, 24 h
[7] = system: Saccharomyces cerevisiae; test: Microbiostatic activity against Saccharomyces cerevisiae ATCC 74212 after 48 hr by two fold microdilution technique
[8] = system: Proteus vulgaris; test: Antibacterial activity against Proteus vulgaris ATCC 6896 after 24 hr by two-fold microdilution technique; details: ATCC 6896, 24 h

| SMILES | MIC [1] [µg/mL] | MIC [2] [µg/mL] | MIC [3] [µg/mL] | MIC ([4]; ATCC 76615, 48 h) [µg/mL] | MIC [5] [µg/mL] | MIC [6] [µg/mL] | MIC ([7]; ATCC 74212, 48 h) [µg/mL] | MIC [8] [µg/mL] | MIC [4] | MIC [7] |
| --- | --- | --- | --- | --- | --- | --- | --- | --- | --- | --- |
| O=C1CSc2cc(Cl)ccc2N1C1CCCCC1 | 32 (≈ 114 µM) | 16 (≈ 56.8 µM) | 32 (≈ 114 µM) | 64 (≈ 227 µM) | 16 (≈ 56.8 µM) | 32 (≈ 114 µM) | 128 (≈ 454 µM) | 32 (≈ 114 µM) |  |  |
| CCCCCCN1C(=O)CSc2ccc(Cl)cc21 | 32 (≈ 113 µM) | 32 (≈ 113 µM) | 64 (≈ 225 µM) |  | 16 (≈ 56.4 µM) | 32 (≈ 113 µM) |  | 32 (≈ 113 µM) | inactive | inactive |
| O=C1CSc2c(Cl)cccc2N1C1CCCCC1 | 32 (≈ 114 µM) | 16 (≈ 56.8 µM) | 64 (≈ 227 µM) | 128 (≈ 454 µM) | 32 (≈ 114 µM) | 32 (≈ 114 µM) | 64 (≈ 227 µM) | 32 (≈ 114 µM) |  |  |
| O=C1CSc2cc(Cl)ccc2N1Cc1ccccc1 | 32 (≈ 110 µM) | 64 (≈ 221 µM) | 64 (≈ 221 µM) |  | 16 (≈ 55.2 µM) | 64 (≈ 221 µM) |  | 32 (≈ 110 µM) | inactive | inactive |
| CC1(C)S[C@@H]2[C@H](NC(=O)[C@H](N)c3ccccc3)C(=O)N2[C@H]1C(=O)O [AMPICILLIN] | 16 (≈ 45.8 µM) | 2 (≈ 5.72 µM) | 128 (≈ 366 µM) |  | 16 (≈ 45.8 µM) | 1 (≈ 2.86 µM) |  | 16 (≈ 45.8 µM) | inactive | inactive |
| CC(C)(O/N=C(\C(=O)N[C@@H]1C(=O)N2C(C(=O)[O-])=C(C[n+]3ccccc3)CS[C@H]12)c1csc(N)n1)C(=O)O [CEFTAZIDIME] | 4 (≈ 7.32 µM) | 4 (≈ 7.32 µM) | 128 (≈ 234 µM) |  | 16 (≈ 29.3 µM) | 2 (≈ 3.66 µM) |  | 4 (≈ 7.32 µM) | inactive | inactive |
| O=C1CSc2c(Cl)cccc2N1Cc1ccccc1 | 64 (≈ 221 µM) | 64 (≈ 221 µM) | 32 (≈ 110 µM) | 128 (≈ 442 µM) | 32 (≈ 110 µM) | 64 (≈ 221 µM) | 64 (≈ 221 µM) | 64 (≈ 221 µM) |  |  |
| O=C1CSc2ccc(Cl)cc2N1CC1CCCO1 (stereo not given) | 64 (≈ 226 µM) | 64 (≈ 226 µM) | 128 (≈ 451 µM) | 64 (≈ 226 µM) | 32 (≈ 113 µM) | 32 (≈ 113 µM) | 128 (≈ 451 µM) | 64 (≈ 226 µM) |  |  |
| O=C1CSc2cccc(Cl)c2N1Cc1ccccc1 | 16 (≈ 55.2 µM) | 32 (≈ 110 µM) | 32 (≈ 110 µM) |  | 32 (≈ 110 µM) | 32 (≈ 110 µM) | 128 (≈ 442 µM) | 64 (≈ 221 µM) | inactive |  |
| O=C1CSc2cccc(Cl)c2N1CC1CCCO1 (stereo not given) | 32 (≈ 113 µM) | 32 (≈ 113 µM) | 64 (≈ 226 µM) | 64 (≈ 226 µM) | 32 (≈ 113 µM) | 32 (≈ 113 µM) | 128 (≈ 451 µM) | 32 (≈ 113 µM) |  |  |
| O=C1CSc2ccc(Cl)cc2N1C1CCCCC1 | 64 (≈ 227 µM) | 32 (≈ 114 µM) | 128 (≈ 454 µM) | 256 (≈ 908 µM) | 32 (≈ 114 µM) | 64 (≈ 227 µM) |  | 64 (≈ 227 µM) |  | inactive |
| CCCCCCN1C(=O)CSc2cccc(Cl)c21 | 32 (≈ 113 µM) | 32 (≈ 113 µM) | 64 (≈ 225 µM) |  | 32 (≈ 113 µM) | 32 (≈ 113 µM) |  | 32 (≈ 113 µM) | inactive | inactive |
| Clc1ccccc1C(c1ccccc1)(c1ccccc1)n1ccnc1 [CLOTRIMAZOLE] | 512 (≈ 1480 µM) | 512 (≈ 1480 µM) | 512 (≈ 1480 µM) | 2 (≈ 5.8 µM) | 512 (≈ 1480 µM) | 512 (≈ 1480 µM) | 4 (≈ 11.6 µM) | 512 (≈ 1480 µM) |  |  |
| O=C1CSc2c(Cl)cccc2N1CC1CCCO1 (stereo not given) | 64 (≈ 226 µM) | 32 (≈ 113 µM) | 128 (≈ 451 µM) | 128 (≈ 451 µM) | 32 (≈ 113 µM) | 16 (≈ 56.4 µM) | 128 (≈ 451 µM) | 64 (≈ 226 µM) |  |  |
| O=C1CSc2cccc(Cl)c2N1C1CCCCC1 | 32 (≈ 114 µM) | 16 (≈ 56.8 µM) | 32 (≈ 114 µM) | 64 (≈ 227 µM) | 16 (≈ 56.8 µM) | 32 (≈ 114 µM) | 128 (≈ 454 µM) | 32 (≈ 114 µM) |  |  |
| O=C1CSc2cc(Cl)ccc2N1CC1CCCO1 (stereo not given) | 32 (≈ 113 µM) | 32 (≈ 113 µM) | 64 (≈ 226 µM) | 128 (≈ 451 µM) | 16 (≈ 56.4 µM) | 64 (≈ 226 µM) | 128 (≈ 451 µM) | 32 (≈ 113 µM) |  |  |
| CCCCCCN1C(=O)CSc2cc(Cl)ccc21 | 32 (≈ 113 µM) | 32 (≈ 113 µM) | 64 (≈ 225 µM) | 128 (≈ 451 µM) | 64 (≈ 225 µM) | 32 (≈ 113 µM) | 256 (≈ 902 µM) | 64 (≈ 225 µM) |  |  |
| CCCCCCN1C(=O)CSc2c(Cl)cccc21 | 32 (≈ 113 µM) | 32 (≈ 113 µM) | 32 (≈ 113 µM) | 64 (≈ 225 µM) | 32 (≈ 113 µM) | 16 (≈ 56.4 µM) | 64 (≈ 225 µM) | 16 (≈ 56.4 µM) |  |  |
| O=C1CSc2ccc(Cl)cc2N1Cc1ccccc1 | 32 (≈ 110 µM) | 16 (≈ 55.2 µM) | 32 (≈ 110 µM) | 64 (≈ 221 µM) | 16 (≈ 55.2 µM) | 32 (≈ 110 µM) | 64 (≈ 221 µM) | 32 (≈ 110 µM) |  |  |
| CN[C@@H]1[C@H](O[C@H]2[C@H](O[C@H]3[C@H](O)[C@@H](O)[C@H](N=C(N)N)[C@@H](O)[C@@H]3N=C(N)N)O[C@@H](C)[C@]2(O)C=O)O[C@@H](CO)[C@H](O)[C@H]1O [STREPTOMYCIN] | 4 (≈ 6.88 µM) | 2 (≈ 3.44 µM) | 2 (≈ 3.44 µM) |  | 8 (≈ 13.8 µM) | 32 (≈ 55 µM) |  | 4 (≈ 6.88 µM) | inactive | inactive |
